Laboratory results published in US20250154162A1, “COMPOUND FOR REGULATING AND CONTROLLING 15-PGDH ACTIVITY AND PREPARATION METHOD THEREFOR” (SCINNOHUB PHARMACEUTICAL CO., LTD., priority 2022, published 2025).

How the values were obtained:
[1] = target: 15-PGDH (Homo sapiens (Human), UniProt P15428); assay: Detection of 15-PGDH enzyme activity; format: biochemical; conditions: 15-PGDH enzyme inhibitory activity; substrates β-NAD and PGF2α
Source text: The formula was shown below: Y=Bottom+(Top-Bottom)/(1+10∧((LogIC50−X)*HillSlope)), wherein X is a log value of a concentration of the compound, and Y is inhibition rate %.

[2] = tested on: A549 cells; assay: Assay of intracellular PGE2 up-regulatory activity; format: cell-based; conditions: Homo sapiens, IL-1β induced, 8 h, relative to positive control group; for activity at 0.01 µM: 10 nM compound, read-out: PGE2 upregulation rate at 10 nM compound concentration; for activity at 0.3 µM: 300 nM compound, read-out: PGE2 upregulation rate at 300 nM compound concentration
Protocol: • a) A549 cells were inoculated in the 24-well plate, and after cell adhesion, IL-1β was added thereto for 16 h of stimulation to induce COX2 expression and PGE2 production. • b) A solution of the compound to be tested was prepared with the culture medium and gradiently diluted to 3 concentrations of 10 nM, 300 nM and 10,000 nM or 7 concentrations of 0.64 nM, 3.2 nM, 16 nM, 80 nM, 400 nM, 2000 nM and 10,000 nM, and meanwhile the positive control group (only IL-1β was added to the cells for induction) and negative control group (only cells were added in the wells without any treatment) were set up. The cell supernatants were collected after 8 h of action, in which the positive control group was induced by IL-1β without treatment of the compounds, and the negative control group was neither stimulated by IL-1β, nor treated with the compounds. • c) The PGE2 content of the samples was determined by Prostaglandin E2 Kit, and the fluorescence signal was detected by a multifunctional microplate reader (Ex/Em=337/620, 337/665).
• a) A standard curve was plotted with the PGE2 standard in the Prostaglandin E2 Kit, and the PGE2 concentration was calculated by substituting with the fluorescence signal of the sample. • b) The PGE2 upregulation rate % was calculated by using the following formula: • PGE2 upregulation rate %=(PGE2 concentration of sample group/PGE2 concentration of positive control group)×100%.

15-PGDH, sequence (P15428 whole entry): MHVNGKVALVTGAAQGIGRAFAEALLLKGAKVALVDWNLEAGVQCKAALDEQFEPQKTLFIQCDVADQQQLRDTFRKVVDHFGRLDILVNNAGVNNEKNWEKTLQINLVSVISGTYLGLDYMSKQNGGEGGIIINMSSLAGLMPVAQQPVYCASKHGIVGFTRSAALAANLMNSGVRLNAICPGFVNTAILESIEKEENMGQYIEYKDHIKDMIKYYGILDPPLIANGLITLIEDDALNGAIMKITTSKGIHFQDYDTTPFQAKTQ

Row | IC50 [1] [nM] | Compound | activity at 0.01 µM [2] [%] | activity at 0.3 µM [2] [%]
1 | 3 to 10 | Nc1c(C(=O)N2CCCCC2)sc2nc(-c3ccccc3)cnc12 [Example 1, (7-amino-3-phenylthieno[2,3-b]pyrazin-6-yl) (piperidin-1-yl) methanone] | – | –
2 | 0.5 to 3 | Nc1c(C(=O)N2CCCCC2)sc2nc(-c3ccc4ncoc4c3)cnc12 [Example 2, (7-amino-3-(benzo[d]oxazol-6-yl)thieno[2,3-b]pyrazin-6-yl) (piperidin-1-yl) methanone] | 200 | 348
3 | 10 to 25 | Nc1c(C(=O)N2CCC(F)CC2)sc2nc(-c3ccccc3)cnc12 [Example 3, (7-amino-3-phenylthieno[2,3-b]pyrazin-6-yl) (4-fluoropiperidin-1-yl) methanone] | – | –
4 | 10 to 25 | Nc1c(C(=O)N2CCCCCC2)sc2nc(-c3ccccc3)cnc12 [Example 4] | – | –
5 | 0.5 to 3 | Nc1c(C(=O)N2CCCCC2)sc2nc(-c3cccs3)cnc12 [Example 5] | 451 | –
6 | 0.5 to 3 | Nc1c(C(=O)N2CCCCC2)sc2nc(-c3cncnc3)cnc12 [Example 6] | 412 | 450
7 | 0.5 to 3 | Nc1c(C(=O)N2CCCCC2)sc2nc(-c3cncs3)cnc12 [Example 7] | 479 | 758
8 | 3 to 10 | Cn1ccc(-c2cnc3c(N)c(C(=O)N4CCCCC4)sc3n2)n1 [Example 8] | – | –
9 | 3 to 10 | Nc1c(C(=O)N2CCCCC2)sc2nc(-c3ccn[nH]3)cnc12 [Example 9] | – | –
10 | 0.5 to 3 | Nc1c(C(=O)N2CCCCC2)sc2nc(-c3ccc4c(c3)OCCO4)cnc12 [Example 10] | – | 206
11 | 0.5 to 3 | Cc1noc(C)c1-c1cnc2c(N)c(C(=O)N3CCCCC3)sc2n1 [Example 11] | 990 | –
12 | 0.5 to 3 | Nc1c(C(=O)N2CCCCC2)sc2nc(-c3ccc4nccnc4c3)cnc12 [Example 12] | – | 170
13 | 0.5 to 3 | Nc1ccc(-c2cnc3c(N)c(C(=O)N4CCCCC4)sc3n2)cn1 [Example 13] | – | 207
14 | 0.5 to 3 | Nc1c(C(=O)N2CCCCC2)sc2nc(-c3ccc4nccn4c3)cnc12 [Example 15] | – | 168
15 | 10 to 25 | Nc1c(C(=O)N2CCSCC2)sc2nc(-c3ccccc3)cnc12 [Example 16] | – | –
16 | 0.5 to 3 | Cn1cc(-c2cnc3c(N)c(C(=O)N4CCCCC4)sc3n2)ccc1=O [Example 17] | – | –
17 | 3 to 10 | Cn1ncc2cc(-c3cnc4c(N)c(C(=O)N5CCCCC5)sc4n3)ccc21 [Example 18] | – | –
18 | 3 to 10 | Nc1c(C(=O)N2CCCCC2)sc2nc(-c3ccc(N4CCOCC4)nc3)cnc12 [Example 19] | – | –
19 | 0.5 to 3 | COc1ccc(-c2cnc3c(N)c(C(=O)N4CCCCC4)sc3n2)cn1 [Example 20] | – | –
20 | < 0.5 | Nc1c(C(=O)N2CCCCC2)sc2nc(-c3ccnc(F)c3)cnc12 [Example 21] | – | 211
21 | 0.5 to 3 | Nc1c(C(=O)N2CCCCC2)sc2nc(-c3ccc4ncccc4c3)cnc12 [Example 22] | 282 | 329

Row | IC50 [1] [nM] | Compound | activity at 0.01 µM [2] [%] | activity at 0.3 µM [2] [%]
22 | < 0.5 | Nc1c(C(=O)N2CCCCC2)sc2nc(-c3ccc4ncsc4c3)cnc12 [Example 23] | 254 | 375
23 | < 0.5 | Nc1c(C(=O)N2CCCCC2)sc2nc(-c3cnc(N4CCOCC4)nc3)cnc12 [Example 24] | – | 310
24 | < 0.5 | CN(C)c1ncc(-c2cnc3c(N)c(C(=O)N4CCCCC4)sc3n2)cn1 [Example 25] | – | 276
25 | 0.5 to 3 | Nc1c(C(=O)N2CCCCC2)sc2nc(-c3cncc4ccccc34)cnc12 [Example 26] | 499 | –
26 | 0.5 to 3 | Nc1c(C(=O)N2CCCCC2)sc2nc(-c3ccncc3)cnc12 [Example 27] | – | –
27 | 0.5 to 3 | CN1CCN(c2ncc(-c3cnc4c(N)c(C(=O)N5CCCCC5)sc4n3)cn2)CC1 [Example 28] | – | 318
28 | 0.5 to 3 | Nc1c(C(=O)N2CCCCC2)sc2nc(-c3cnc4[nH]ccc4c3)cnc12 [Example 29] | – | –
29 | 0.5 to 3 | Cc1cc(-c2cnc3c(N)c(C(=O)N4CCCCC4)sc3n2)ccn1 [Example 30] | – | 341
30 | 0.5 to 3 | Nc1c(C(=O)N2CCCCC2)sc2nc(-c3cnc4ccccc4c3)cnc12 [Example 31] | – | –
31 | 3 to 10 | Nc1c(C(=O)N2CCCCC2)sc2nc(-c3cccnc3)cnc12 [Example 32] | 530 | –
32 | < 0.5 | Nc1ncc(-c2cnc3c(N)c(C(=O)N4CCCCC4)sc3n2)cn1 [Example 33] | 393 | 754
33 | 0.5 to 3 | Nc1c(C(=O)N2CCCCC2)sc2nc(-c3c(Cl)cccc3Cl)cnc12 [Example 34] | – | –
34 | 0.5 to 3 | Nc1c(C(=O)N2CCCCC2)sc2nc(-c3ccc4ccccc4c3)cnc12 [Example 35] | 208 | 231
35 | 0.5 to 3 | Cc1ccc(-c2cnc3c(N)c(C(=O)N4CCCCC4)sc3n2)cn1 [Example 36] | 301 | 384
36 | 3 to 10 | Nc1c(C(=O)N2CCCCC2)sc2nc(-c3ccnc(C(F)(F)F)c3)cnc12 [Example 37] | – | –
37 | 0.5 to 3 | Nc1c(C(=O)N2CCCCC2)sc2nc(-c3ccc4cccnc4c3)cnc12 [Example 39] | – | –
38 | 0.5 to 3 | Nc1c(C(=O)N2CCCCC2)sc2nc(-c3ccc4nc[nH]c4c3)cnc12 [Example 40] | 233 | 315
39 | 3 to 10 | Nc1c(C(=O)N2CCCCC2)sc2nc(-c3cnc4[nH]ncc4c3)cnc12 [Example 41] | – | –
40 | 0.5 to 3 | Cn1ccc(-c2cnc3c(N)c(C(=O)N4CCCCC4)sc3n2)cc1=O [Example 42] | – | 204
41 | 3 to 10 | Nc1c(C(=O)N2CCCCC2)sc2nc(-c3ccc4c(c3)OCO4)cnc12 [Example 43] | – | –
42 | 3 to 10 | N#Cc1ncc(-c2cnc3c(N)c(C(=O)N4CCCCC4)sc3n2)cn1 [Example 44] | – | –

Row | IC50 [1] [nM] | Compound | activity at 0.01 µM [2] [%] | activity at 0.3 µM [2] [%]
43 | 0.5 to 3 | COc1cncc(-c2cnc3c(N)c(C(=O)N4CCCCC4)sc3n2)c1 [Example 45] | 177 | 347
44 | 0.5 to 3 | Nc1c(C(=O)N2CCCCC2)sc2nc(-c3ccc(F)nc3)cnc12 [Example 46] | – | 251
45 | < 0.5 | N#Cc1ccc(-c2cnc3c(N)c(C(=O)N4CCCCC4)sc3n2)cn1 [Example 47] | 424 | 774
46 | 10 to 25 | Cn1cc(-c2cnc3c(N)c(C(=O)N4CCCCC4)sc3n2)cn1 [Example 48] | – | –
47 | 50 to 1000 | Nc1c(C(=O)N2CCC(F)(F)CC2)sc2nc(-c3ccccc3)cnc12 [Example 49] | – | –
48 | 50 to 1000 | Nc1c(C(=O)N2CCC(F)(F)C2)sc2nc(-c3ccccc3)cnc12 [Example 50] | – | –
49 | 50 to 1000 | Nc1c(C(=O)N2CCOCC2)sc2nc(-c3ccccc3)cnc12 [Example 51] | – | –
50 | 50 to 1000 | CN1CCN(C(=O)c2sc3nc(-c4ccccc4)cnc3c2N)CC1 [Example 52] | – | –
51 | 1000 to 5000 | Nc1c(C(=O)N2CCS(=O)(=O)CC2)sc2nc(-c3ccccc3)cnc12 [Example 53] | – | –
52 | 50 to 1000 | Nc1c(C(=O)N2CCc3ccccc3C2)sc2nc(-c3ccccc3)cnc12 [Example 54] | – | –
53 | 50 to 1000 | CC1CN(C(=O)c2sc3nc(-c4ccccc4)cnc3c2N)CC(C)O1 (stereo not drawn) [Example 55] | – | –
54 | 50 to 1000 | CC1(C)CCN(C(=O)c2sc3nc(-c4ccccc4)cnc3c2N)CC1 [Example 56] | – | –
55 | 50 to 1000 | Nc1c(C(=O)N2CCC3(CC2)CC3)sc2nc(-c3ccccc3)cnc12 [Example 57] | – | –
56 | > 5000 | Nc1c(C(=O)N2CC[S+]([O-])CC2)sc2nc(-c3ccccc3)cnc12 [Example 58] | – | –
57 | > 5000 | Nc1c(C(=O)N2CC3(COC3)C2)sc2nc(-c3ccccc3)cnc12 [Example 59] | – | –
58 | < 0.5 | COc1ncc(-c2cnc3c(N)c(C(=O)N4CCCCC4)sc3n2)cn1 [Example 60] | – | –
59 | 3 to 10 | Nc1c(C(=O)N2CCCCC2)sc2nc(-c3cccc4ccccc34)cnc12 [Example 61] | – | –
60 | 0.5 to 3 | Nc1cc(-c2cnc3c(N)c(C(=O)N4CCCCC4)sc3n2)ccn1 [Example 62] | – | –
61 | 0.5 to 3 | CN1Cc2cc(-c3cnc4c(N)c(C(=O)N5CCCCC5)sc4n3)ccc2C1=O [Example 63] | – | 222
62 | 0.5 to 3 | Cn1ccc2cc(-c3cnc4c(N)c(C(=O)N5CCCCC5)sc4n3)ccc2c1=O [Example 64] | 173 | 196
